pIC50: −log10 of the molar value. Active and inactive are the calls of the source. No cut-off for these calls is given here.
Columns and labels:
[1] = target: c-Jun N-terminal kinase (Mus musculus) (UniProt Q91Y86+Q9WTU6+Q61831); assay: Inhibition of JNK in mouse NIH-3T3 cells assessed as inhibition of anisomycin-activated c-Jun phosphorylation preincubated for 1 hrs followed by anisomycin activation for 1 hrs by Western blot analysis; format: cell-based; details: NIH3T3, dose 2-50 µM, time 2.0 hrs
c-Jun N-terminal kinase (Mus musculus), sequence (Q61831 whole entry, looked up): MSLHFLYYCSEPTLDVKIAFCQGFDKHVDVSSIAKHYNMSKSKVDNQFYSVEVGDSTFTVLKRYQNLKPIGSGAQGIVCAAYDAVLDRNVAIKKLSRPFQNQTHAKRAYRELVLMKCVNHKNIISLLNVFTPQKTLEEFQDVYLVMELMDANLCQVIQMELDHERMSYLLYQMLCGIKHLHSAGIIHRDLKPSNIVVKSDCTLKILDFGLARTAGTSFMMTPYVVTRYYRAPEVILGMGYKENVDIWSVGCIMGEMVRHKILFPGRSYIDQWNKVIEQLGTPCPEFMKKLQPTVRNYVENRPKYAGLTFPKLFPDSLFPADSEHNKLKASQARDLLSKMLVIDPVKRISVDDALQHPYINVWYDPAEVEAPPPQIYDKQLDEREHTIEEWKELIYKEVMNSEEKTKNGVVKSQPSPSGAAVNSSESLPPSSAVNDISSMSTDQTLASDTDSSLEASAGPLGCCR
c-Jun N-terminal kinase (Mus musculus), sequence (Q91Y86 whole entry, looked up): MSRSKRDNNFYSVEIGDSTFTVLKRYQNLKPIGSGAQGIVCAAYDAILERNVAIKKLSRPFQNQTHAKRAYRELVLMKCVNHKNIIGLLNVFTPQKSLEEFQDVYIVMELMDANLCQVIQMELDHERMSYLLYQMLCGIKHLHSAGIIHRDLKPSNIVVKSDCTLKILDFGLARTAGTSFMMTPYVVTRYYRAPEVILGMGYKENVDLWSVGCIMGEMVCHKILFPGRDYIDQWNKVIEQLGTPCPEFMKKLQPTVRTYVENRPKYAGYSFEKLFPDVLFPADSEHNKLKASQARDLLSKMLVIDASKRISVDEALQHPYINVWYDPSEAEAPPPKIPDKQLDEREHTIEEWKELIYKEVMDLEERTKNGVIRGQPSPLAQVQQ
c-Jun N-terminal kinase (Mus musculus), sequence (Q9WTU6 whole entry, looked up): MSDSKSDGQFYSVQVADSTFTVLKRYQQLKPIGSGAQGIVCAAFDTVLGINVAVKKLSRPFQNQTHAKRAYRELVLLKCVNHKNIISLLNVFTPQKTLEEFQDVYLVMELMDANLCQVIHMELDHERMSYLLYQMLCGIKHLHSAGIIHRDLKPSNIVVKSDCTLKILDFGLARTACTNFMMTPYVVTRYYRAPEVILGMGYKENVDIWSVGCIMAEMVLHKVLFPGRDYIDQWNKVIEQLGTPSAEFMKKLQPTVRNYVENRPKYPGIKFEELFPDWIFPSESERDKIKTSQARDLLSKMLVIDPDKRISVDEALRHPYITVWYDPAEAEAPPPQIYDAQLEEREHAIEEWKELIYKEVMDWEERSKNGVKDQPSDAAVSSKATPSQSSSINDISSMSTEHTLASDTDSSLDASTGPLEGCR

[2] = MRT(0 to infinity) in Sprague-Dawley rat at 5 mg/kg, iv by HPLC-UV analysis; format: ADME, organism-based; details: in vivo
[3] = target: CDK4/Cyclin D3 (Homo sapiens) (UniProt P11802+P30281); assay: Inhibition of CDK4/Cyclin D3 (unknown origin) at 1 uM preincubated for 10 mins followed by substrate addition and measured after 60 mins in the presence of ATP by ADP-Glo reagent based luminescence assay; format: protein-complex assay; details: time 70.0 min
Mus musculus [4] = assay: Anti-fibrotic activity in bleomycin-induced C57BL/6 mouse model of pulmonary fibrosis assessed as reduction in mortality rate at 25 mg/kg, po administered twice a day for 3 weeks (reference value: 43%); format: functional; parameters: scale not given: the % may be the effect or the level left
[5] = target: T1, Mitogen-activated protein kinase 8 (Homo sapiens, UniProt P45983); assay: Inhibition of N-terminal GST-tagged recombinant full length human JNK1 expressed in baculovirus infected Sf9 insect cells using IPTTPITTTYFFFKKK as substrate incubated for 60 mins in the presence of ATP by ADP-Glo reagent based luminescence assay
T1 sequence (P45983 whole entry): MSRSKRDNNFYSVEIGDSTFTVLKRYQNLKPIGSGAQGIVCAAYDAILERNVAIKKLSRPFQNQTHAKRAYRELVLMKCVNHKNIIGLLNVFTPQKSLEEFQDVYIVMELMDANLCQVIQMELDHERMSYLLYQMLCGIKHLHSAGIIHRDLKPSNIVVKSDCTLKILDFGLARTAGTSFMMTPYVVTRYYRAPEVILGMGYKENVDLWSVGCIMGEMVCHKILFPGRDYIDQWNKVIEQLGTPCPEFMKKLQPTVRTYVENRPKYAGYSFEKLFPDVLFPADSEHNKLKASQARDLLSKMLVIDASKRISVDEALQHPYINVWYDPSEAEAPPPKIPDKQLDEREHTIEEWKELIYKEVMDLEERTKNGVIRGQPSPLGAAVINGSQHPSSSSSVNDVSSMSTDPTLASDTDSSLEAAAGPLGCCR

[6] = target: T1, Mitogen-activated protein kinase 8; assay: Inhibition of N-terminal GST-tagged recombinant full length human JNK1 expressed in baculovirus infected Sf9 insect cells using IPTTPITTTYFFFKKK as substrate at 0.1 uM incubated for 60 mins in the presence of ATP by ADP-Glo reagent based luminescence assay relative to control
Homo sapiens = organism: Homo sapiens; assay: Selectivity ratio of IC50 for inhibition of N-terminal GST-tagged recombinant full length human JNK2 expressed in baculovirus infected Sf9 cells to IC50 for inhibition of N-terminal GST-tagged recombinant full length human JNK1 expressed in baculovirus infected Sf9 insect cells
Mus musculus [7] = assay: Anti-fibrotic activity in bleomycin-induced C57BL/6 mouse model of pulmonary fibrosis assessed as alleviation of body weight loss at 25 to 75 mg/kg, po administered twice a day for 3 weeks; format: functional, organism-based; details: dose 25-75 mg/kg
Mus musculus [8] = assay: Anti-fibrotic activity in bleomycin-induced C57BL/6 mouse model of pulmonary fibrosis assessed as alleviation of alveolar wall thickening in lungs at 25 to 75 mg/kg, po administered twice a day for 3 weeks by H&E staining based analysis; format: functional, organism-based; details: dose 25-75 mg/kg
[9] = target: T1, Mitogen-activated protein kinase 8; assay: Inhibition of N-terminal GST-tagged recombinant full length human JNK1 expressed in baculovirus infected Sf9 insect cells using IPTTPITTTYFFFKKK as substrate at 1 uM incubated for 60 mins in the presence of ATP by ADP-Glo reagent based luminescence assay relative to control
[10] = Half-life in Sprague-Dawley rat at 5 mg/kg, iv by HPLC-UV analysis; format: ADME, organism-based; details: in vivo
Mus musculus [11] = assay: Anti-fibrotic activity in bleomycin-induced C57BL/6 mouse model of pulmonary fibrosis assessed as increase in respiratory function by measuring tidal volume at 25 to 75 mg/kg, po administered twice a day for 3 weeks by spirometry analysis; format: functional, organism-based; details: dose 25-75 mg/kg
[12] = target: T2, Mitogen-activated protein kinase 10 (Homo sapiens, UniProt P53779); assay: Inhibition of N-terminal GST-tagged recombinant full length human JNK3 expressed in baculovirus infected Sf9 cells using IPTTPITTTYFFFKKK as substrate incubated for 60 mins in the presence of ATP by ADP-Glo reagent based luminescence assay
T2 sequence (P53779 whole entry): as the sequence (Q61831 whole entry, looked up) above, with H27Q, S32Y, S267D, V345A, S412G, A432S counted along it

Mus musculus [13] = assay: Anti-fibrotic activity in bleomycin-induced C57BL/6 mouse model of pulmonary fibrosis assessed as protection against BLM-induced death at 75 mg/kg, po administered twice a day for 3 weeks relative to control; format: functional
[14] = Clearance in Sprague-Dawley rat at 75 mg/kg, po by HPLC-UV analysis; format: ADME, organism-based; details: in vivo
[15] = target: Mitogen-activated protein kinase 7 (Homo sapiens) (UniProt Q13164); assay: Inhibition of ERK5 (unknown origin) at 1 uM preincubated for 10 mins followed by substrate addition and measured after 60 mins in the presence of ATP by ADP-Glo reagent based luminescence assay relative to control; details: time 70.0 min
Mitogen-activated protein kinase 7 (Homo sapiens), sequence (Q13164 2-816 limits assumed): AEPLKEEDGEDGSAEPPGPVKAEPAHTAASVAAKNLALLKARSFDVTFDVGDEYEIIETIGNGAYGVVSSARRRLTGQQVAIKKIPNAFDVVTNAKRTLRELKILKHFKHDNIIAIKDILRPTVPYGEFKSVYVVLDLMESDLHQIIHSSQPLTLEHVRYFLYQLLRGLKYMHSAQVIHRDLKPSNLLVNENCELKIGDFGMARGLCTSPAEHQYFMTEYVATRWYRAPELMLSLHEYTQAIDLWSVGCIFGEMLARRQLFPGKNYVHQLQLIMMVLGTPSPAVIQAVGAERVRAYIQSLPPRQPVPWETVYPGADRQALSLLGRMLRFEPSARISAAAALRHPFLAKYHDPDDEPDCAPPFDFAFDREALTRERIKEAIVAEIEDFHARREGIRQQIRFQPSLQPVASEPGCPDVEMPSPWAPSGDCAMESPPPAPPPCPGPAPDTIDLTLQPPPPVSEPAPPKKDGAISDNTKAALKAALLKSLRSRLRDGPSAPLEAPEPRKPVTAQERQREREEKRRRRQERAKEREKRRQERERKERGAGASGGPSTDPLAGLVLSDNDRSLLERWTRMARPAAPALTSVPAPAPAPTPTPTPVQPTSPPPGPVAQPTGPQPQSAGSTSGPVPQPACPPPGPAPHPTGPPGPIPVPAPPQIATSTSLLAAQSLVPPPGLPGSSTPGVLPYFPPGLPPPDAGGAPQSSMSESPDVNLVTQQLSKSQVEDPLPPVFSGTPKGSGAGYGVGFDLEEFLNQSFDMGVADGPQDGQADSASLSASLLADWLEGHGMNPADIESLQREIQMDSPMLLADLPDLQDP

[16] = AUC(0 to infinity) in Sprague-Dawley rat at 5 mg/kg, iv by HPLC-UV analysis; format: ADME, organism-based; parameters: dose 5 mg/kg, route iv; details: in vivo
Mus musculus [17] = assay: Anti-fibrotic activity in bleomycin-induced C57BL/6 mouse model of pulmonary fibrosis assessed as alleviation of alveolar collapse in lungs at 25 to 75 mg/kg, po administered twice a day for 3 weeks by H&E staining based analysis; format: functional, organism-based; details: dose 25-75 mg/kg
[18] = Tmax in Sprague-Dawley rat at 75 mg/kg, po by HPLC-UV analysis; format: ADME, organism-based; details: in vivo
[19] = target: c-Jun N-terminal kinase, JNK (Homo sapiens) (UniProt P45983+P53779+P45984); assay: Inhibition of JNK in HFL1 cells assessed as inhibition of anisomycin-activated c-Jun phosphorylation preincubated for 1 hrs followed by anisomycin activation for 1 hrs by Western blot analysis; format: cell-based; details: dose 2-50 µM, time 2.0 hrs
[20] = target: CDK2/Cyclin A2 (Homo sapiens) (UniProt P24941+P20248); assay: Inhibition of CDK2/Cyclin A2 (unknown origin) at 1 uM preincubated for 10 mins followed by substrate addition and measured after 60 mins in the presence of ATP by ADP-Glo reagent based luminescence assay relative to control; format: protein-complex assay; details: time 70.0 min
[21] = target: T2, Mitogen-activated protein kinase 10; assay: Inhibition of N-terminal GST-tagged recombinant full length human JNK3 expressed in baculovirus infected Sf9 cells using IPTTPITTTYFFFKKK as substrate at 1 uM incubated for 60 mins in the presence of ATP by ADP-Glo reagent based luminescence assay relative to control
[22] = target: Dual specificity mitogen-activated protein kinase kinase 2 (Homo sapiens) (UniProt P36507); assay: Inhibition of MAP2K2 (unknown origin) at 1 uM preincubated for 10 mins followed by substrate addition and measured after 60 mins in the presence of ATP by ADP-Glo reagent based luminescence assay relative to control; details: time 70.0 min
Dual specificity mitogen-activated protein kinase kinase 2 (Homo sapiens), sequence (P36507 whole entry): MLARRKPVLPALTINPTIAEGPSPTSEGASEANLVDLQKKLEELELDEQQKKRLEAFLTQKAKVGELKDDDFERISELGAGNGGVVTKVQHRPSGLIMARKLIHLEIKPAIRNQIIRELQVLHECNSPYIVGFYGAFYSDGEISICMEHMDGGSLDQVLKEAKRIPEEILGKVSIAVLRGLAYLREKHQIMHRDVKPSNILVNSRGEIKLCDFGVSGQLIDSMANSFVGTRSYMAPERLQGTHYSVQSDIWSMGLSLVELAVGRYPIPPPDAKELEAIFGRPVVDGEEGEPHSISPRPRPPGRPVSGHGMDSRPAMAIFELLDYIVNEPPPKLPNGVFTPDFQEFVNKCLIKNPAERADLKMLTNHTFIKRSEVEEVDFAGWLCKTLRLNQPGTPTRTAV

[23] = AUC (0 to infinity) in Sprague-Dawley rat at 75 mg/kg, po by HPLC-UV analysis; format: ADME, organism-based; parameters: dose 75 mg/kg, route po; details: in vivo

In the case of `CC(C)(C)CNc1ncc(Br)c(Nc2ccccc2C(N)=O)n1`, the inhibition [1] was “Dose-Dependent Effect”, the MRT inf [2] was 2.85 h and the inhibition [3] was 41.9%. It also gave an Activity (Mus musculus [4]) of 14%, a pIC50 [5] of 7.47 and an inhibition [6] of 71.1%. The Ratio IC50 (Homo sapiens) was 3.36, the Activity (Mus musculus [7]) was “Active” and the Activity (Mus musculus [8]) was “Active”. The inhibition [9] was 99%, the half-life [10] was 2.09 h and the Activity (Mus musculus [11]) was “Active”. The pIC50 [12] was 7.48, the Activity (Mus musculus [13]) was 100% and the CL/F [14] was 860 mL/min/kg. The inhibition [15] was 13.5%, the AUC(0-inf) [16] was 868 ng·h/mL and the Activity (Mus musculus [17]) was “Active”. For the same molecule, the Tmax [18] was 1.38 h, the inhibition [19] was “Dose-Dependent Effect” and the inhibition [20] was 36.1%. For the same molecule, the inhibition [21] was 99.6%, the inhibition [22] was 4.96% and the AUC(0-inf) [23] was 1700 ng·h/mL.
